From patent US11198900B2, “Nucleic acid-based linkers for detecting and measuring interactions” (Children's Medical Center Corporation, priority 2014, dated 2021)

Assays:
[1] = system: disulfide bond (var 4-S-S-var 8); test: DNA nanoswitch disulfide bond reduction; details: 10 μM TCEP, room temperature (25° C.)
Method: This construct was created in 3 steps. 1) Var 4 and a truncated version of var 8 with a 3′ and a 5′ thiol respectively, were reduced in 50 mM TCEP (BondBreaker Thermo Scientific). 2) These two oligonucleotides were linked by a disulfide. 3) The disulfide-bridged oligonucleotides were hybridized onto the DNA nanoswitch. • 1) To reduce the thiols on the oligonucleotides they were incubated in 50 mM TCEP for 1 hour at RT. • 2) Equal volumes of the two oligonucleotide-TCEP mixtures were then combined. The TCEP was removed using a QIAGEN nucleotide-removal kit. The oligonucleotides were then allowed to form disulfides in the absence of reducing agent in PBS for 1 hour before running the products on a precast 4-20% gradient polyacrylamide TBE gel. As the oligonucleotides were different sizes (60 and 30 nt) the appropriate hetero dimer could be easily identified and purified using electroelution as previously described^5. • 3) The var 4-S-S-var 8 was used instead of the normal var 4 and var 8. This was annealed onto the linear M13 backbone at a 1:1 ratio and was added along with the other oligonucleotides at the beginning of the annealing. This yielded loops with a disulfide bridging variable regions 4 and 8.
With these loops in hand we could observe loop opening as a result of TCEP reduction of the disulfide bond. […]

Neutravidin = Neutravidin (Gallus gallus, UniProt P02701); test: DNA nanoswitch gel electrophoresis, biotin with avidin and Neutravidin; assay type: binding; details: relative to avidin
Method: Preparations with avidin and neutravidin were prepared in the same way, but protein concentrations were sometimes altered to enable on-rate measurements over a similar time scale as the streptavidin experiments.

streptavidin [2] = target: T1, streptavidin (Streptomyces avidinii, UniProt P22629); test: DNA nanoswitch gel electrophoresis, biotin-streptavidin kinetics (Example 2, FIG. 7 and 8); assay type: binding; details: for dissociation time: 150 mM physiological salt
T1 construct: purchased Rockland
Description: FIG. 7. […] (A) The DNA nanoswitch has two distinct states, depending on the binding of a receptor-ligand pair, that can be distinguished by gel electrophoresis, (B) In the presence of excess ligand, a nanoswitch in the bound state will become trapped in the unbound state upon dissociation. […] The amount of looped construct is quantified from the gel to determine the kinetics of dissociation.
FIG. 7D, for example, illustrates the formation of looped constructs having two biotins in the presence of streptavidin (t=0).
Linkers were designed according to protocols for long (2580 bp) and short (600 bp) loops as described herein. […] All other oligos were the same as those used previously. Briefly, looped constructs were made by mixing a long single-stranded DNA (M13mp18, in this case) with over 121 oligos that are complementary along its length. […] The constructs come together by self-assembly with a temperature ramp heating and cooling them.
Recognizing that the nanoswitch conformation informs the receptor-ligand binding state (bound or unbound), and that the conformation can be observed on a gel, an assay to measure bulk interaction kinetics was developed. The assay, conceptually shown in FIG. 7, proceeds as follows: 1) form a looped nucleic acid (DNA) construct that relies on a receptor and a ligand being bound to each other, 2) quench the interaction between the receptor and the ligand, for example, with excess receptor or ligand to prevent rebinding following dissociation, 3) monitor the relative amount of looped construct over time to measure kinetics.
Linear double-stranded DNA constructs 7249 base pairs (bp) in length were self-assembled by combining the single-stranded M13 bacteriophage genome with 121 complementary oligos. (See also Halvorsen K et al., 2011.). Two of the oligos were labeled with single biotins and placed 2580 bp from each other, such that interaction with streptavidin induced the formation of a 2580 bp loop in the structure. […] The entire array of 16 conditions with five time points each plus controls was then run on a single 96 lane agarose gel (FIG. 8).
The gel analysis tool in ImageJ was used to measure the integrated intensity of the band containing looped construct, and this quantity was normalized by the integrated intensity of a reference band in the same lane from a DNA ladder, which was added to the construct prior to starting experiments. Individual time constants for each experimental condition were determined by fitting a single exponential decay to the data using an error weighted least squares fitting.

streptavidin [3] = target: T1, streptavidin; test: DNA nanoswitch gel electrophoresis, biotin-streptavidin on-rate and off-rate (Example 3); assay type: binding
Method: This construct used biotinylated versions of two oligonucleotides (var 4 and var 8), which were used in 4× molar excess to the scaffold, while all other oligonucleotides were used in a 10× molar excess. […] The final DNA construct was then diluted 100× from its original concentration of ˜16 nM (to 160 pM), and mixed in equal volumes with streptavidin (Rockland) at 6 nM nominal concentration to form the loops, yielding final nominal concentrations of ˜80 pM and 3 nM, respectively.
The 25° C. experiment was performed at room temperature, the 4° C. experiment was performed in a cold room, and the 37° C. and 50° C. experiments were performed using a thermal cycler. […] Actual concentrations used to determine the on-rates were measured using spectrophotometry and a HABA assay to determine streptavidin activity.
Off-rate measurements were performed by forming looped construct as described above, and letting the solution sit for at least 24 hours to allow the system to reach equilibrium. […] The 4° C. condition was done in a refrigerator, the 25° C. sample was done in a water bath, and the 37° C. and 50° C. temperatures were done in a thermal cycler. To run all the samples on a single gel, the quenching times were determined relative to the predetermined gel running time.
The amount of material in each gel band was quantified by analyzing the scanned gel images with the gel analysis tool in the freely available ImageJ software package. Using rectangular regions of interest that just capture the width of the gel bands, this toolbox produces intensity profiles whose area can be measured to quantify the total brightness in each band. We applied the same rectangular window size to each lane within a single gel. In many gels the highest molecular weight band of the added ladder was used as a normalizing reference lane. This relaxed the constraints of pipetting perfectly across all lanes. • 2) All multistate (with 5 bands) gels were analyzed as follows
Error bars were produced based on this analysis, and all fitting procedures used an error weighted least squares fit.
The time evolution of DNA nanoswitch states are modeled using multistep reaction kinetics. On rates are modeled as a two-step process: Unbound Linear→Singly Bound Linear→Looped
Step 1 represents the binding of a free receptor in solution to a ligand on the scaffold (yielding the solution on-rate), Step 2 represents the subsequent binding of this receptor to another ligand on the same scaffold to form a loop (yielding the loop-closure rate).
We additionally used Eyring analysis to fit the temperature dependence of the kinetic rates: […]

streptavidin [4] = target: T1, streptavidin; test: DNA nanoswitch gel electrophoresis, desthiobiotin-streptavidin off-rate; assay type: binding
Method: Desthiobiotin experiments were conducted in a similar manner as the biotin experiments with slight modifications. […] The off-rate of the desthiobiotin interaction is much faster than the typical 100 minute gel run time. Noting that once a loop opens in the gel, the reptation of the DNA prevents the loop from closing again, we ran samples for different amounts of time in the gel at 15 V/cm and 4° C., and quantified the fraction looped as a function of running time. In addition to allowing the determination of the desthiobiotin-streptavidin off rate, this gel also allowed us to determine the minimum amount of time required to achieve separation of the looped and unlooped bands in the gel. This enabled the use of the standard quenching technique for measuring desthiobiotin off-rates as described in the previous section; these gels were run at 15 V/cm for 10 minutes in pre-chilled electrophoresis buffer.

[5] = calculated from on-rate and off-rate

T1 sequence (P22629 25-183): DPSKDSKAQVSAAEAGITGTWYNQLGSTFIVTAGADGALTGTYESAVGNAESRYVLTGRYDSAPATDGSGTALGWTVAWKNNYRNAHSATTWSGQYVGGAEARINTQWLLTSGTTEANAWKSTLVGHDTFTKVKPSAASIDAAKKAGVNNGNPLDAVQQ
Chain of Neutravidin (P02701 25-152): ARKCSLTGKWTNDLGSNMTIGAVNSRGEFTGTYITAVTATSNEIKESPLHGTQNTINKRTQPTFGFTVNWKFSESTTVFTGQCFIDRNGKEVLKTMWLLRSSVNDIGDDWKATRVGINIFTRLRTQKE

SMILES: O=C(O)CCP(CCC(=O)O)CCC(=O)O [TCEP]
- time constant of disulfide bond reduction [1]: 2.6±0.4 weeks

SMILES: O=C(O)CCCC[C@@H]1SC[C@@H]2NC(=O)N[C@@H]21 [biotin]
- affinity of Neutravidin for biotin, weaker than avidin's (Neutravidin): 20 times
- change of off-rate with salt (streptavidin [2]; 5 mM to 500 mM at a given temperature): less than 2 fold
- dissociation time (streptavidin [2]; 25° C.): 148 ± 10 h
- dissociation time (streptavidin [2]; 37° C.): 11.2 ± 3 h
- variation of off-rate with temperature (streptavidin [2]; 4° C. to 50° C. at a given salt concentration): over 100 fold
- off-rates as fast as (streptavidin [2]; high temperature): 40 min
- on-rate (streptavidin [3]; 150 mM salt, room temperature): 4.0±0.7×10^6 M^−1s^−1
- variation of dissociation kinetics over temperature range (streptavidin [3]; 4-50° C.): ~1,000 fold
- variation of dissociation kinetics over salt range (streptavidin [3]; 25-500 mM): about 2 fold
- equilibrium enthalpy change, ΔH (streptavidin [3]; [5]): 26.01 ± 0.05 kcal/mol
- equilibrium free energy change, ΔG^0 (streptavidin [3]; [5]): -17.1 ± 0.1 kcal/mol
- dissociation time (streptavidin [3]; physiological salt conditions, 25° C.): 9.7 ± 0.4 days

SMILES: C[C@@H]1NC(=O)N[C@@H]1CCCCCC(=O)O [desthiobiotin]
- off-rate (streptavidin [4]; 4° C.): 35.3 ± 7.5 min
- off-rate (streptavidin [4]; room temperature): 8.6 ± 1.2 min
